Values quoted from earlier work as cited in patent US10344034B2, “Pyrazolopyrimidone or Pyrrolotriazone derivatives, method of preparing same, and pharmaceutical applications thereof” (Shanghai Hengrui Pharmaceutical Co., Ltd., priority 2013, dated 2019).

Conditions: cited from earlier work

SMILES: COc1cccc(-c2c(C)n(Cc3c(F)cccc3C(F)(F)F)c(=O)n(C[C@H](NCCCC(=O)O)c3ccccc3)c2=O)c1F [elagolix, Elagolix]
- safety and tolerability (endometriosis phase II trial): well verified
- serum estrogen level (women with endometriosis, elagolix 150 or 250 mg qd, vs leuprorelin depot and placebo): lower than that of the leuprorelin treatment group and placebo group
